Laboratory results from ChEMBL document CHEMBL5050847, “Targeting pleckstrin-2 for treating cancer” (2020).
Calls of active or inactive are those of the source. The rule behind the calls is not given here.

Tests used:
[1] = Acute toxicity in mouse assessed as drug tolerability time at 40 mg/kg, ip administered as single dose; format: organism-based; conditions: in vivo
Mus musculus [2] = assay: Protection against erythropoietin-induced myeloproliferation in wild type mouse assessed as reduction in reticulocytosis at 40 mg/kg, ip administered every 2 days for 8 days; format: functional, organism-based; conditions: time 2.0 day
[3] = Toxicity in Jak2 V617F-konckin induced myeloproliferation in mouse assessed as induction of side effects at 25 mg/kg, ip administered once every two days; format: organism-based; conditions: in vivo, 48 h, time 2 day
Mus musculus [4] = assay: Protection against Jak2 V617F-konckin induced myeloproliferation in mouse assessed as reduction in extramedullary erythropoiesis at 25 mg/kg, ip administered once every two days; format: functional, organism-based; conditions: time 2.0 day
[5] = Toxicity in wild type mouse assessed as hematologic abnormalities at 40 mg/kg, ip administered every 2 days for 8 days; format: organism-based; conditions: in vivo, 48 h, time 2 day
Mus musculus [6] = assay: Protection against Jak2 V617F-konckin induced myeloproliferation in mouse assessed as reduction in vascular occlusions in lung at 25 mg/kg, ip administered once every two days; format: functional, organism-based; conditions: time 2.0 day
Bone marrow cell = assay: Inhibition of Plek2 in mouse bone marrow lineage negative cells expressing wild-type Plek2 and treated with erythropoietin at 10 uM assessed as inhibition of Akt phosphorylation measured by western blot analysis; format: cell-based
Mus musculus [7] = assay: Protection against erythropoietin-induced myeloproliferation in wild type mouse assessed as reduction in vascular occlusions at 40 mg/kg, ip administered every 2 days for 8 days; format: functional, organism-based; conditions: time 2.0 day
Mus musculus [8] = assay: Protection against Jak2 V617F-konckin induced myeloproliferation in mouse assessed as reduction in spleen size at 25 mg/kg, ip administered once every two days; format: functional, organism-based; conditions: time 2.0 day
Mus musculus [9] = assay: Protection against Jak2 V617F-konckin induced myeloproliferation in mouse assessed as reduction in red blood cell count at 25 mg/kg, ip administered once every two days; format: functional, organism-based; conditions: time 2.0 day
Mus musculus [10] = assay: Protection against erythropoietin-induced myeloproliferation in wild type mouse assessed as reduction in leucocytosis at 40 mg/kg, ip administered every 2 days for 8 days; format: functional, organism-based; conditions: time 2.0 day
[11] = Inhibition of Plek2 in Ter119-negative mouse fetal liver erythroid progenitor cells overexpressing Plek2 cultured in erythropoietin containing medium assessed as decrease in cell proliferation measured by HTS assay; format: tissue-based
Mus musculus [12] = assay: Protection against erythropoietin-induced myeloproliferation in wild type mouse assessed as reduction in splenomegaly at 40 mg/kg, ip administered every 2 days for 8 days; format: functional, organism-based; conditions: time 2.0 day
Mus musculus [13] = assay: Protection against Jak2 V617F-konckin induced myeloproliferation in mouse assessed as normalization of white blood cell count at 25 mg/kg, ip administered once every two days; format: functional, organism-based; conditions: time 2.0 day
Mus musculus [14] = assay: Protection against erythropoietin-induced myeloproliferation in wild type mouse assessed as reduction in erythrocytosis in spleen red pulp at 40 mg/kg, ip administered every 2 days for 8 days; format: functional, organism-based; conditions: time 2.0 day
Jurkat = assay: Effect on Plek2 cell membrane localization in human Jurkat cells overexpressing GFP-Plek2 at 100 nM measured by real-time confocal imaging analysis; format: functional, cell-based
Mus musculus [15] = assay: Protection against erythropoietin-induced myeloproliferation in wild type mouse assessed as improvement in lung vasculature at 40 mg/kg, ip administered every 2 days for 8 days; format: functional, organism-based; conditions: time 2.0 day
[16] = Inhibition of Plek2 in Ter119-positive mouse fetal liver erythroid progenitor cells cultured in erythropoietin containing medium assessed as decrease in terminal enucleation of erythroblasts measured by HTS assay; format: tissue-based
COS-7 = assay: Inhibition of Plek2 in African green monkey COS-7 cells overexpressing Plek2 at 10 uM assessed as decrease in lamellipodia formation; format: cell-based; conditions: Chlorocebus aethiops
[17] = Inhibition of Plek2 in Ter119-positive mouse fetal liver erythroid progenitor cells cultured in erythropoietin containing medium assessed as decrease in cell proliferation measured by HTS assay; format: tissue-based
Homo sapiens = species on record: Homo sapiens; assay: Binding affinity towards GST-tagged Plek2 (unknown origin) at 200 uM measured by isothermal calorimetry (ITC) assay relative to control

In the case of `CN1CCN(C(c2ccc(Cl)cc2)C(O)C(=O)c2c[nH]c3ccccc23)CC1` (stereo unspecified), the Time [1] is reported as 2 days, the Activity (Mus musculus [2]) is reported as “Active” and the Activity [3] is reported as “Non-Toxic”. The Activity (Mus musculus [4]) was “Active”, the Activity [5] was “Non-Toxic” and the Activity (Mus musculus [6]) was “Active”. For the same compound, the inhibition (Bone marrow cell) was “Active”, the Activity (Mus musculus [7]) was “Active” and the Activity (Mus musculus [8]) was “Active”. The Activity (Mus musculus [9]) was “Active”, the Activity (Mus musculus [10]) was “Active” and the IC50 [11] was under 10 µM. For the same compound, the Activity (Mus musculus [12]) was “Active”, the Activity (Mus musculus [13]) was “Active” and the Activity (Mus musculus [14]) was “Active”. The Activity (Jurkat) was “Active” and the Activity (Mus musculus [15]) was “Active”.
For `O=C(c1c[nH]c2ccccc12)C(O)C(c1ccccc1)N1CCN(CCO)CC1` (stereo unspecified), the IC50 [16] was 40 µM, the inhibition (COS-7) was “Active” and the IC50 [17] was 40 µM. The Activity (Homo sapiens) was “Active”.
